What is called melting point is the temperature of the solid-liquid transition. With `Cn1c(C(=O)NC(CF)Cc2ccccc2)cc2c(O)cccc21` (single isomer, unassigned; (+)) [Example 29, (+)-N-(1-Fluoromethyl-2-phenylethyl)4-hydroxy-1-methyl-1H-indole-2-carboxamide], the melting point lay within 157 to 158 °C. On to `Cn1c(C(=O)NC(CF)Cc2ccccc2)cc2c(O)cccc21` (centres unmarked) [Example 23, N-(1-Fluoromethyl-2-phenylethyl) 4-hydroxy-1-methyl-1H-indole-2-carboxamide], for which the melting point is 163.5 to 165.5 °C.
